Marks after values point to notes of the source that are not given here.
Test system: brain of rats subjected to severe traumatic brain injury (sTBI)
Assay: HPLC of free amino acids and amino group containing compounds in brain after sTBI (Example 1)
Assay type: in vivo, rat
Procedure: They were divided into three groups:
1) n=6 animals subjected to sTBI, with drug administration after 30 minutes and sacrifice at 2 days post-TBI (Acute phase 1)
2) n=6 animals subjected to sTBI, with drug administration after 30 minutes and sacrifice at 7 days post-TBI (Acute phase 2).
3) n=6 animals subjected to sTBI, with drug administration after 3 days and sacrifice at 7 days post-TBI (Chronic phase).
The drug treatment was a subcutaneous injection of 0.5 ml of LMW-DS (15 mg/kg) and administered according to the aforementioned schematic protocol.
After the wet weight (w.w.) determination, tissue preparation was affected as previously disclosed (Tavazzi et al., Neurosurgery. 2005; 56: 582-589; Vagnozzi et al., Neurosurgery. 2007; 61: 379-388; Tavazzi et al., Neurosurgery. 2007; 61: 390-395; Amorini et al., J Cell Mol Med. 2017; 21: 530-542.). Briefly, whole brain homogenization was performed with 7 ml of ice-cold, nitrogen-saturated, precipitating solution composed by CH3CN+10 mM KH2PO4, pH 7.40, (3:1; v:v), and using an Ultra-Turrax set at 24,000 rpm/min (Janke & Kunkel, Staufen, Germany). After centrifugation at 20,690×g, for 10 min at 4° C., the clear supernatants were saved, pellets were supplemented with 3 ml of the precipitating solution and homogenized again as described above. A second centrifugation was performed (20,690×g, for 10 min at 4° C.), pellets were saved, supernatants combined with those previously obtained, extracted by vigorous agitation with a double volume of HPLC-grade CHCl3 and centrifuged as above. The upper aqueous phases containing water-soluble low-molecular weight compounds were collected, subjected to chloroform washings for two more times (this procedure allowed the removal of all the organic solvent and of any lipid soluble compound from the buffered tissue extracts), adjusted in volumes with 10 mM KH2PO4, pH 7.40, to have ultimately aqueous 10% tissue homogenates and saved at −80° C. until assayed.
The simultaneous determination of primary free amino acids (FAA) and amino group containing compounds (AGCC) (listed below) was performed using the precolumn derivatization of the sample with a mixture of Ortho-phthalaldehyde (OPA) and 3-Mercaptopropionic acid (MPA), as described in detail elsewhere (Amorini et al., J Cell Mol Med. 2017; 21: 530-542; Amorini et al., Mol Cell Biochem. 2012; 359: 205-216). […] The automated precolumn derivatization of the samples (15 μl) with OPA-MPA was carried out at 24° C. and 25 μl of the derivatized mixture were loaded onto the HPLC column (Hypersil C-18, 250×4.6 mm, 5 μm particle size, thermostated at 21° C.) for the subsequent chromatographic separation. In the case of glutamate, deproteinized brain extracts were diluted 20 times with HPLC-grade H2O prior to the derivatization procedure and subsequent injection. Separation of OPA-AA and OPA-AGCC was carried out at a flow rate of 1.2 ml/min using two mobile phases (mobile phase A=24 mmol/l CH3COONa+24 mmol/l Na2HPO4+1% tetrahydrofurane+0.1% trifluoroacetic acid, pH 6.5; mobile phase B=40% CH3OH+30% CH3CN+30% H2O), using an appropriate step gradient (Amorini et al., J Cell Mol Med. 2017; 21: 530-542; Amorini et al., Mol Cell Biochem. 2012; 359: 205-216).
Assignment and calculation of the OPA-AA and OPA-AGCC in chromatographic runs of whole brain extracts were carried out at 338 nm wavelengths by comparing retention times and areas of peaks with those of peaks of chromatographic runs of freshly-prepared ultra-pure standard mixtures with known concentrations. […]

[1] = Acute phase 1: 15 mg/kg s.c. 30 min post-sTBI, sacrifice day 2
[2] = Acute phase 2: 15 mg/kg s.c. 30 min post-sTBI, sacrifice day 7
[3] = Chronic phase: 15 mg/kg s.c. 3 days post-sTBI, sacrifice day 7

sodium salt of dextran sulfate [LMW-DS] was tested. Which “effect on sTBI-induced increase in glutamate (GLU)” value (15 mg/kg s.c. early post-injury (30 min following sTBI)) did it give?
The value was “remarkable inhibition”.

What about the “effect on glutamate excitotoxicity marker” value (15 mg/kg s.c. injected at 3 days after sTBI) of the same substance?
The value was “no efficacy”.

What about the ALA cerebral concentration [1] of the same substance?
Its ALA cerebral concentration is 0.50 ± 0.12^a μmol/g (w.w.).

And the ARG cerebral concentration [1]?
Its ARG cerebral concentration is 0.13 ± 0.02^b, d μmol/g (w.w.).

What about the ASN cerebral concentration [1] of the same substance?
Its ASN cerebral concentration is 0.12 ± 0.02^i μmol/g (w.w.).

And the ASP cerebral concentration [1]?
Its ASP cerebral concentration is 2.40 ± 0.56^d, i μmol/g (w.w.).

And the CITR cerebral concentration [1]?
Its CITR cerebral concentration is 0.018 ± 0.004 µmol/g (w.w.).

What about the GABA cerebral concentration [1] of the same substance?
The GABA cerebral concentration was 1.43 ± 0.25^a μmol/g (w.w.).

And the GLN cerebral concentration [1]?
The GLN cerebral concentration was 4.78 ± 1.09^a μmol/g (w.w.).

What about the GLU cerebral concentration [1] of the same substance?
The GLU cerebral concentration was 9.81 ± 1.66^i μmol/g (w.w.).

And the GLY cerebral concentration [1]?
Its GLY cerebral concentration is 0.83 ± 0.25^a, c μmol/g (w.w.).

And the HIS cerebral concentration [1]?
The HIS cerebral concentration was 0.068 ± 0.015^b μmol/g (w.w.).

And the ILE cerebral concentration [1]?
The ILE cerebral concentration was 0.038 ± 0.007 µmol/g (w.w.).

What about the L-Cystat cerebral concentration [1] of the same substance?
Its L-Cystat cerebral concentration is 0,185 ± 0.031^b, c, i μmol/g (w.w.).

What about the LEU cerebral concentration [1] of the same substance?
The LEU cerebral concentration was 0.021 ± 0.005^a, c μmol/g (w.w.).

What about the LYS cerebral concentration [1] of the same substance?
The LYS cerebral concentration was 0.236 ± 0.057^b, d, h μmol/g (w.w.).

And the MET cerebral concentration [1]?
Its MET cerebral concentration is 0.016 ± 0.005^d, j μmol/g (w.w.).

And the ORN cerebral concentration [1]?
Its ORN cerebral concentration is 0.014 ± 0.007 µmol/g (w.w.).

What about the PHE cerebral concentration [1] of the same substance?
The PHE cerebral concentration was 0.031 ± 0.011^b, d μmol/g (w.w.).

What about the SAH cerebral concentration [1] of the same substance?
The SAH cerebral concentration was 0.033 ± 0.008^b, c, j μmol/g (w.w.).

What about the SER cerebral concentration [1] of the same substance?
The SER cerebral concentration was 0.88 ± 0.25^a μmol/g (w.w.).

And the TAU cerebral concentration [1]?
The TAU cerebral concentration was 4.86 ± 0.85^b μmol/g (w.w.).

And the THR cerebral concentration [1]?
Its THR cerebral concentration is 0.92 ± 0.29^a μmol/g (w.w.).

And the TRP cerebral concentration [1]?
Its TRP cerebral concentration is 0.030 ± 0.007^b, dg, i μmol/g (w.w.).

What about the TYR cerebral concentration [1] of the same substance?
Its TYR cerebral concentration is 0.15 ± 0.03 µmol/g (w.w.).

And the VAL cerebral concentration [1]?
The VAL cerebral concentration was 0.042 ± 0.011 µmol/g (w.w.).

What about the ALA cerebral concentration [2] of the same substance?
The ALA cerebral concentration was 0.52 ± 0.24^a, e μmol/g (w.w.).

And the ARG cerebral concentration [2]?
Its ARG cerebral concentration is 0.16 ± 0.03 µmol/g (w.w.).

What about the ASN cerebral concentration [2] of the same substance?
The ASN cerebral concentration was 0.13 ± 0.03^i μmol/g (w.w.).

And the ASP cerebral concentration [2]?
The ASP cerebral concentration was 2.94 ± 0.98^f, j μmol/g (w.w.).

What about the CITR cerebral concentration [2] of the same substance?
The CITR cerebral concentration was 0.018 ± 0.008 µmol/g (w.w.).

And the GABA cerebral concentration [2]?
The GABA cerebral concentration was 1.60 ± 0.24^a μmol/g (w.w.).

And the GLN cerebral concentration [2]?
Its GLN cerebral concentration is 3.66 ± 0.41 µmol/g (w.w.).

What about the GLU cerebral concentration [2] of the same substance?
The GLU cerebral concentration was 9.93 ± 1.56^e, i μmol/g (w.w.).

What about the GLY cerebral concentration [2] of the same substance?
The GLY cerebral concentration was 0.71 ± 0.16^f, i μmol/g (w.w.).

And the HIS cerebral concentration [2]?
The HIS cerebral concentration was 0.055 ± 0.019 µmol/g (w.w.).

What about the ILE cerebral concentration [2] of the same substance?
Its ILE cerebral concentration is 0.048 ± 0.017^a μmol/g (w.w.).

And the L-Cystat cerebral concentration [2]?
Its L-Cystat cerebral concentration is 0.173 ± 0.038^b, f, i μmol/g (w.w.).

What about the LEU cerebral concentration [2] of the same substance?
Its LEU cerebral concentration is 0.018 ± 0.004 µmol/g (w.w.).

What about the LYS cerebral concentration [2] of the same substance?
The LYS cerebral concentration was 0.32 ± 0.04^a, e, i μmol/g (w.w.).

And the MET cerebral concentration [2]?
Its MET cerebral concentration is 0.022 ± 0.006^b, e, i μmol/g (w.w.).

What about the ORN cerebral concentration [2] of the same substance?
The ORN cerebral concentration was 0.011 ± 0.005 µmol/g (w.w.).

What about the PHE cerebral concentration [2] of the same substance?
Its PHE cerebral concentration is 0.028 ± 0.010 µmol/g (w.w.).

And the SAH cerebral concentration [2]?
The SAH cerebral concentration was 0.026 ± 0.010^f, i μmol/g (w.w.).

And the SER cerebral concentration [2]?
Its SER cerebral concentration is 0.71 ± 0.28^b μmol/g (w.w.).

And the TAU cerebral concentration [2]?
The TAU cerebral concentration was 3.80 ± 1.19 µmol/g (w.w.).

What about the THR cerebral concentration [2] of the same substance?
Its THR cerebral concentration is 0.66 ± 0.23 µmol/g (w.w.).

And the TRP cerebral concentration [2]?
Its TRP cerebral concentration is 0.015 ± 0.006 µmol/g (w.w.).

What about the TYR cerebral concentration [2] of the same substance?
The TYR cerebral concentration was 0.172 ± 0.046^b, f μmol/g (w.w.).

What about the VAL cerebral concentration [2] of the same substance?
The VAL cerebral concentration was 0.057 ± 0.017 µmol/g (w.w.).

And the ALA cerebral concentration [3]?
Its ALA cerebral concentration is 0.57 ± 0.28^a, e μmol/g (w.w.).

And the ARG cerebral concentration [3]?
Its ARG cerebral concentration is 0.14 ± 0.02 µmol/g (w.w.).

What about the ASN cerebral concentration [3] of the same substance?
Its ASN cerebral concentration is 0.18 ± 0.02^a μmol/g (w.w.).

What about the ASP cerebral concentration [3] of the same substance?
The ASP cerebral concentration was 4.46 ± 0.70^a, f μmol/g (w.w.).

And the CITR cerebral concentration [3]?
Its CITR cerebral concentration is 0.020 ± 0.006 µmol/g (w.w.).

What about the GABA cerebral concentration [3] of the same substance?
Its GABA cerebral concentration is 1.85 ± 0.65^a μmol/g (w.w.).

And the GLN cerebral concentration [3]?
Its GLN cerebral concentration is 3.98 ± 0.34 µmol/g (w.w.).

And the GLU cerebral concentration [3]?
The GLU cerebral concentration was 13.58 ± 1.28^a μmol/g (w.w.).

What about the GLY cerebral concentration [3] of the same substance?
Its GLY cerebral concentration is 1.05 ± 0.13^a, f μmol/g (w.w.).

And the HIS cerebral concentration [3]?
The HIS cerebral concentration was 0.047 ± 0.021 µmol/g (w.w.).

And the ILE cerebral concentration [3]?
The ILE cerebral concentration was 0.041 ± 0.016^b μmol/g (w.w.).

What about the L-Cystat cerebral concentration [3] of the same substance?
The L-Cystat cerebral concentration was 0.26 ± 0.05^a, f μmol/g (w.w.).

And the LEU cerebral concentration [3]?
Its LEU cerebral concentration is 0.024 ± 0.032^b, f μmol/g (w.w.).

What about the LYS cerebral concentration [3] of the same substance?
The LYS cerebral concentration was 0.179 ± 0.036 µmol/g (w.w.).

And the MET cerebral concentration [3]?
The MET cerebral concentration was 0.009 ± 0.004^b μmol/g (w.w.).

What about the ORN cerebral concentration [3] of the same substance?
Its ORN cerebral concentration is 0.017 ± 0.009^a, e μmol/g (w.w.).

And the PHE cerebral concentration [3]?
Its PHE cerebral concentration is 0.033 ± 0.011^b μmol/g (w.w.).

And the SAH cerebral concentration [3]?
Its SAH cerebral concentration is 0.050 ± 0.013^a μmol/g (w.w.).

And the SER cerebral concentration [3]?
The SER cerebral concentration was 0.93 ± 0.27^a, e μmol/g (w.w.).

What about the TAU cerebral concentration [3] of the same substance?
Its TAU cerebral concentration is 4.49 ± 0.43^a μmol/g (w.w.).

And the THR cerebral concentration [3]?
Its THR cerebral concentration is 0.75 ± 0.24^a, e μmol/g (w.w.).

What about the TRP cerebral concentration [3] of the same substance?
Its TRP cerebral concentration is 0.012 ± 0.007 µmol/g (w.w.).

What about the TYR cerebral concentration [3] of the same substance?
The TYR cerebral concentration was 0.21 ± 0.05^f μmol/g (w.w.).

And the VAL cerebral concentration [3]?
The VAL cerebral concentration was 0.040 ± 0.016^b μmol/g (w.w.).

— patent US20220128542A1, “TREATMENT EFFICIENCY EVALUATION” (TX MEDIC AB, priority 2019, published 2022)
